# Patent US20250313960A1, “CHOLINE HYDROXIDE FOR SALT DI[…] RENEWABLE FEEDSTOCK PROCESS” (Ecolab USA Inc., priority 2024, published 2025)
# Columns and labels:
# [1] = in water; all tested temperatures; compared with NH4Cl; FIG. 1, literature and experimental data
# Method: The solubility experiment was conducted by adding different amounts of salt to a set amount of water in glass vials. The amount of water used was such that the salt was mostly insoluble at room temperature. The vials were then heated up until all salts were dissolved. Temperature was recorded as each vial cooled. The temperature at which crystallization began was noted.
# [2] = all temperatures; compared with NH4Cl; FIG. 2, literature values or calculated from solubility data
# Method: The effectiveness of the salt to dissolve in the aqueous phase was determined by its critical relative humidity (CRH) at various temperatures. CRH was defined by the ratio of the partial pressure of water in the solution (Pw) to the partial pressure of pure water (P*w) shown below.
# The CRH of the salt at a specified temperature was calculated from thermodynamic parameters found in the equation:
# Where CRH was the critical relative humidity, T was the temperature, ΔHs was the heat of solution at infinite dilution, R is the gas constant, and A, B, and C are solubility parameters obtained from solubility as a function of temperature of the salt.
# Data not available in the literature was experimentally performed in triplicate by an enthalpy experiment and a solubility experiment.
# The enthalpy experiment was conducted by recording changes in temperature as different amounts of the salt dissolved in a set volume of water located in a calorimeter. The enthalpy of solution was calculated for each of the different amount of salt used. The enthalpy data was then fitted and extrapolated to determine enthalpy of solution at an infinite dilution.
# The CRH values at room temperature were found in literature or calculated from the solubility data following the below equations.
structure (smiles),measurement,setting,value
"C[N+](C)(C)CCO.[Cl-] [ChCl, choline chloride]",solubility as a function of temperature (mol salt/mol water),[1],more soluble than NH4Cl
same,critical relative humidity (CRH),[2],lower
